Reference: publication PMC5734728, “The JAK2/STAT3 inhibitor pacritinib effectively inhibits patient-derived GBM brain tumor initiating cells in vitro and when used in combination with temozolomide increases survival in an orthotopic xenograft model” (PLoS ONE, 2017)
Read-outs that look alike come from different tables or passages of the source.

Key:
[1] = in vitro; format: in vitro ADME, mouse; settings: male, CD-1, mouse
Description: (§1) Working stocks were initially diluted to a concentration of 40 μM in 0.1 M potassium phosphate buffer before addition to the reaction vials. Pooled mouse (CD-1, male) or human (50 donors) liver microsomes were utilized at a final concentration of 0.5 mg/mL. Duplicate wells were used for each time point (0 and 30 minutes). Reactions were carried out at 37°C in a shaker, and the final concentration of DMSO was kept constant at 0.01%. The final volume for each reaction was 100 μL, which included the addition of an NADPH-Regeneration solution (NRS) mix. The NRS mix was comprised of glucose 6-phosphate dehydrogenase (0.4 U/mL), NADP+ (1.3 mM), MgCl2 (3.3 mM), and glucose 6-phosphate (3.3 mM) in assay mixtures. Upon completion of the 30-minute time point, reactions were terminated by the addition of 1.5-volumes (150 μL) of ice-cold acetonitrile with 0.5% formic acid and internal standard. Samples were then centrifuged at 4,000 rpm for 10 minutes to remove debris and precipitated protein. Approximately 150 μL of supernatant was subsequently transferred to a new 96-well microplate for LC-MS analysis. Narrow-window mass extraction LC-MS analysis was performed for all samples using a Waters Xevo quadrupole time-of-flight (QToF) mass spectrometer and an ACQUITY UPLC system, to determine relative peak areas of parent compound.

[2] = mouse liver microsomes; usual value of control compound; cited from earlier work
[3] = human liver microsomal stability assay; format: in vitro ADME; settings: human liver microsomes, 30-minute incubation, 1 μM
Description: as §1

[4] = human liver microsomes; usual value of control compound; cited from earlier work
[5] = system: p-STAT3 Y705; assay: western blotting of activated STAT3 in BTICs; format: cell-based, human; settings: BT53, 48 hours; 1 μM pacritinib, 10 μg/mL TMZ or both
Description: BTIC spheres were enzymatically dissociated as described above and plated at 10^6 cells/2 mL of media. Cells were treated with vehicle (DMSO), pacritinib, TMZ, or a combination of pacritinib and TMZ and pelleted at select time points (3, 24, and 48 hours). For protein extraction, BTICs were lysed in modified radio-immunoprecipitation assay buffer supplemented with Complete Mini protease (Roche) and Halt phosphatase (Thermo Scientific) inhibitor cocktails. Protein concentrations were quantified using the BioRad protein assay; 20 μg of protein were loaded on 6% or 10% sodium dodecyl sulfate polyacrylamide gel electrophoresis (SDS PAGE) gels and transblotted to nitrocellulose membranes. Blots were stained with primary antibodies followed by horseradish peroxidase-conjugated secondary antibodies. Primary antibodies included p-STAT3 Y705 (1:1000; Cell Signaling Technology), STAT3 (1:1000; Cell Signaling Technology), p-Akt S473 (1:1000; Cell Signaling Technology), Akt (1:1000; Cell Signaling Technology), p-p44/42 MAPK (T202/Y204) (1:1000; Cell Signaling Technology), p44/42 MAPK (1:4000; Cell Signaling Technology), poly (ADP-ribose) polymerase (1:1000; Cell Signaling Technology), β-tubulin (1:1000; Cell Signaling Technology), and Actin (1:1000; Santa Cruz Biotechnology). Secondary antibodies included donkey anti-mouse (1:5000; Cell Signaling Technology), donkey anti-goat (1:5000; Millipore), and goat anti-rabbit (1:5000; Cell Signaling Technology). The blots were washed with tris-buffered saline and tween 20 (T-TBS) (50mM Tris, 150mM NaCl, 0.05% Tween 20, pH 7.6) and blocked with tris-buffered saline (TBS) before imaging. Bands were visualized with the SuperSignal West Pico chemiluminescent solution (Thermo Scientific) and an Amersham™ Imager 600 (General Electric).

[6] = system: BT53 orthotopic xenograft; assay: Kaplan-Meier survival, orthotopic BT53 xenograft; format: in vivo, mice; settings: BT53; combination p < 0.0023, TMZ alone p < 0.0229, log-rank
Description: For Kaplan-Meier survival studies, BTIC spheres from BT53 or BT147 were dissociated to a single-cell suspension. Mice were anaesthetized using 10 mg/kg ketamine/xylazine. Buprenorphine (0.05 mg/kg) was administered once pre-operatively and once post-operatively to minimize animal suffering. 5 x 10^4 cells were stereotactically implanted into the right striata of 8- to 10-week-old female severe combined immunodeficient (SCID) mice, as previously described and approved by the University of Calgary Health Sciences Animal Care Committee, accredited by CCAC. Mice were randomized to vehicle or treatment cohorts, with a minimum of 8 mice per group, one week after cell implantation. For BT147, vehicle (Ora-Plus; Galenova), pacritinib (100 mg/kg), TMZ (30 mg/kg), or a combination of pacritinib (100 mg/kg) and TMZ (30 mg/kg), were administered via oral gavage. Animals completed a five-week regimen of three weekly treatments for a total of 15 treatments. For BT53, 100 mg/kg of pacritinib was administered twice per day alone or in combination with 50 mg/kg TMZ once per day, for one week via oral gavage. Following this, mice received 100 mg/kg pacritinib twice per day in combination with 10 mg/kg TMZ once per day for two weeks. […] The body weights were closely monitored throughout the course of the experiment. […]

[7] = system: BT147 orthotopic xenograft; assay: Kaplan-Meier survival, orthotopic BT147 xenograft; format: in vivo; settings: BT147 xenografted mice; pacritinib 100 mg/kg, TMZ 30 mg/kg, oral, thrice weekly for five weeks; control 52 days
Description: For Kaplan-Meier survival studies, BTIC spheres from BT53 or BT147 were dissociated to a single-cell suspension. Mice were anaesthetized using 10 mg/kg ketamine/xylazine. Buprenorphine (0.05 mg/kg) was administered once pre-operatively and once post-operatively to minimize animal suffering. 5 x 10^4 cells were stereotactically implanted into the right striata of 8- to 10-week-old female severe combined immunodeficient (SCID) mice, as previously described and approved by the University of Calgary Health Sciences Animal Care Committee, accredited by CCAC. Mice were randomized to vehicle or treatment cohorts, with a minimum of 8 mice per group, one week after cell implantation. For BT147, vehicle (Ora-Plus; Galenova), pacritinib (100 mg/kg), TMZ (30 mg/kg), or a combination of pacritinib (100 mg/kg) and TMZ (30 mg/kg), were administered via oral gavage. Animals completed a five-week regimen of three weekly treatments for a total of 15 treatments. For BT53, 100 mg/kg of pacritinib was administered twice per day alone or in combination with 50 mg/kg TMZ once per day, for one week via oral gavage. Following this, mice received 100 mg/kg pacritinib twice per day in combination with 10 mg/kg TMZ once per day for two weeks. Mice were euthanized with a lethal dose of sodium pentobarbital at a pre-defined humane endpoint. Specific criteria for the endpoint included: 20% weight loss, lack of grooming, inactivity, hind limb paralysis, and/or inability to eat or drink. The body weights were closely monitored throughout the course of the experiment. […] The presence of tumor was confirmed in the mice via necropsy and cranial dissection.

[8] = system: patient-derived GBM BTIC cultures; assay: alamarBlue viability assay, panel of BTIC cultures; settings: 10 μg/mL TMZ
Description: Accumax (eBioscience) was used to enzymatically dissociate BTIC spheres to single cells. Cells were seeded at 1000 cells per well in 96-well plates and treated with vehicle (DMSO) or drug, 24 hours after plating. BTIC viability was assessed after 7–14 days, once spheres were formed in control wells, by performing the alamarBlue™ (Invitrogen) assay per the manufacturer’s instructions. In brief, the alamar dye was added to each well and plates were read 6 hours later. Fluorescence intensity (excitation 540 nm; emission 590 nm) was measured on a SpectraMax M Series Multi-Mode Microplate reader. […] All experiments were performed in triplicate with a minimum of 3 wells per condition.
BTICs were treated with suboptimal doses of 1 μM pacritinib (CTI Biopharma), 10 μg/mL TMZ (Sigma), or a combination of pacritinib and TMZ. […] Percent inhibition was determined by normalizing each well to the control well (0.1% DMSO).

## Cc1cc(=O)n(-c2ccccc2)n1C [Antipyrine]
[1]; microsomes, % Remaining
  remaining at 0.5 h, 1 μM: 96.5%
[2]
  Usual value (% remaining): Usual value: >90%

## COc1ccc2c(c1)[C@]13CCCC[C@@H]1[C@H](C2)N(C)CC3 [DXM]
[3]
  % Remaining: 75.0%
[4]
  Usual value (% remaining): Usual value: 72 ± 10%

## CC(C)NCC(O)COc1cccc2ccccc12 (centres unmarked) [Propranolol]
[1]; liver microsomes, mouse liver microsomes, 30-minute incubation, 1 μM, read-out: % Remaining
  remaining at 0.5 h, 1 μM: 9.6%
[2]
  Usual value (% remaining): Usual value: <20%

## Cn1nnc2c(C(N)=O)ncn2c1=O [TMZ, temozolomide]
[5]
  p-STAT3 Y705: dramatic increase in p-STAT3 Y705
[6]
  survival advantage over the control, combination study: significant survival advantage over the control arm
[7]
  median survival: 58 days
[8]; representative BT12
  sensitivity of MGMT unmethylated BTIC cultures: largely resistant to TMZ
[8]; representative BT67 and BT69
  sensitivity of MGMT methylated BTIC cultures: highly sensitive to TMZ
